This is an account of results in the NIST ThermoML archive (doi:10.1021/je2002495).

Numbers after ± are expanded uncertainties.

The conditions of data set [1]: Liquid; for mass density: 298.15 K, 101.33 kPa, Pycnometric method.
The nature of data set [2]: excess molar enthalpy (molar enthalpy of mixing); xn = mol fraction of the nth substance listed. Particulars: 298.15 K, 101 kPa, Liquid, Calvet calorimetry.

By mass density is commonly meant the mass of a sample divided by its volume. Take `c1ccncc1` [pyridine]: the mass density in data set [1] was 981.3 ± 0.9 kg/m3. The Normal boiling temperature in data set [1] (Distillation) turned out to be 114.8 ± 1.1 °C.
With `c1ccncc1` [pyridine] + O, the excess molar enthalpy in data set [2] (x1 = 0.095) was -0.0945 ± 0.00574 kcal/mol; in data set [2] (x1 = 0.199), -0.207 ± 0.0124 kcal/mol; in data set [2] (x1 = 0.298), -0.261 ± 0.0158 kcal/mol; in data set [2] (x1 = 0.403) it was -0.294 ± 0.0177 kcal/mol; in data set [2] (x1 = 0.505), -0.306 ± 0.0184 kcal/mol; in data set [2] (x1 = 0.601), -0.295 ± 0.0179 kcal/mol. The excess molar enthalpy was -0.27 ± 0.0163 kcal/mol in data set [2] (x1 = 0.703), -0.208 ± 0.0127 kcal/mol in data set [2] (x1 = 0.807) and -0.0813 ± 0.00502 kcal/mol in data set [2] (x1 = 0.904).
Turning to `O` [water], in data set [1], the mass density worked out at 996.5 ± 0.9 kg/m3.
